In patent publication US20200289474A1, “METHODS OF TREATING PAIN WITH A THIAZOLINE ANTI-HYPERALGESIC” (priority 2019, published 2020):
Where “and” joins values, the source holds several entries; their conditions need not be identical. Equal entries are not always repeated. Entries after “also recorded” stand apart in the source; their conditions may differ. Where two headings read alike, the source gives them in different places.

Key:
[1] = rat 28-day GLP repeat dose PO study (toxicokinetics); type: in vivo; conditions: rat 28-day PO
Experimental: A 28-day GLP repeat dose study with Compound 1 in rats was conducted with oral gavage doses of 0, 500, 1000 or 2000 mg/kg/day at a dosing volume of 10 mL/kg. The vehicle was 0.5% HPMC. There were 15 rats/sex in the control and high dose groups (5/sex for a 14-day recovery period) while the low and mid doses consisted of 10 rats/sex. Satellite groups of rats/sex/group for toxicokinetics were included.
Rats in Group 1 (Vehicle Control) were bled once at approximately 1 hour post-dose on those days.

[2] = rat 7-day repeat dose PO study (toxicokinetics)
[3] = rat 7 day repeat IV dose study; type: in vivo; conditions: 7 day IV
Experimental: In a third study, SD rats (3/sex/group) were administered Compound 1 IV via the tail vein for 7 days at doses of 0, 75 or 150 mg/kg/day. The vehicle was 15% dimethylacetamide, 85% phosphate buffered saline. Blood was collected from all surviving animals for toxicokinetic analysis approximately 2 hours after the last dose on Day 7.

stability in hepatocytes = type: in vitro ADME
Text: (§1) Further metabolism work in additional species will be undertaken.

allodynia = assay: methylglyoxal-induced diabetic neuropathy model; type: in vivo; conditions: rat
stability in plasma = type: in vitro ADME; conditions: dog plasma
Caco-2 cells = assay: cytotoxicity by lactate dehydrogenase (LDH) release; type: cell-based
[4] = rat single dose excretion/metabolite study (urine and feces); type: in vivo
Text: as §1

[5] = test system: incision-induced hyperalgesia; assay: mouse incisional model (mimicking the Brennan protocol); type: in vivo; conditions: 10 mg/kg IP QD, Days 1 and 3 after incision
Experimental: In a mouse incisional model (mimicking the Brennan protocol), animals were baselined for mechanical thresholds prior to incision and then given a daily dose of Compound 1 (10 mg/kg IP QD) or vehicle for 7 days.

[6] = solubility in organic/aqueous solvents; type: physicochemical

## CC1(C)SC(Nc2ccccc2O)=N[C@@H]1C(=O)O.Cl [Compound 1, (R)-2-(2-hydroxyphenylamino)-5,5-dimethyl-4,5-dihydrothiazole-4-carboxylic acid mono-hydrochloride]
[1]; Day 14, M, 2000 mg/kg
  AUCTAU: 701 µg·h/mL
  Cmax: 75600 ng/mL
  t1/2: 3.66 h
[1]; Day 28, F, 500 mg/kg
  AUCINF: 303 µg·h/mL
  AUCTAU: 297 µg·h/mL
  CL/F (CLss/F): 28 mL/min/kg
  Cmax: 86400 ng/mL
  t1/2: 4.62 h
  tmax: 0.5 h
[1]; Day 28, F, 1000 mg/kg
  AUCINF: 741 µg·h/mL
  AUCTAU: 736 µg·h/mL
  CL/F (CLss/F): 22.7 mL/min/kg
  Cmax: 128000 ng/mL
  t1/2: 3.20 h
[1]; Day 28, F, 2000 mg/kg
  AUCINF: 1327 µg·h/mL
  AUCTAU: 1305 µg·h/mL
  CL/F (CLss/F): 25.5 mL/min/kg
  Cmax: 139000 ng/mL
  t1/2: 3.93 h
  tmax: 0.5 h
[1]; Day 28, M, 500 mg/kg
  AUCINF: 333 µg·h/mL
  AUCTAU: 305 µg·h/mL
  CL/F (CLss/F): 27.3 mL/min/kg
  Cmax: 48600 ng/mL
  t1/2: 6.90 h
[1]; Day 28, M, 1000 mg/kg
  AUCINF: 337 µg·h/mL
  AUCTAU: 334 µg·h/mL
  CL/F (CLss/F): 49.8 mL/min/kg
  Cmax: 47900 ng/mL
  t1/2: 3.31 h
[1]; Day 28, M, 2000 mg/kg
  AUCINF: 731 µg·h/mL
  AUCTAU: 724 µg·h/mL
  CL/F (CLss/F): 46 mL/min/kg
  Cmax: 83600 ng/mL
  t1/2: 3.53 h
[2]; female rats, oral gavage, 7 days
  MTD: 2000 mg/kg
[2]; rat 7 Day PO, 2000 mg/kg, Seventh Daily Dose, mean
  Cmax: 119000 ng/mL
[3]; 75 mg/kg, F, 2 h after last dose Day 7, individual animals, mono-hydrochloride, 75 mg/kg
  Conc in rat plasma: 2670 ng/mL and 3250 ng/mL and 3180 ng/mL
[3]; 75 mg/kg, F, 2 h after last dose Day 7, individual animals, mono-hydrochloride, 75 mg/kg, read-out: Conc in rat plasma
  concentration at 2 h: 12.20 µM and 11.94 µM
[3]; 75 mg/kg, M, 2 h after last dose Day 7, individual animals, mono-hydrochloride, 75 mg/kg
  Conc in rat plasma: 2350 ng/mL and 2380 ng/mL and 4310 ng/mL
[3]; 75 mg/kg, M, 2 h after last dose Day 7, individual animals, mono-hydrochloride, 75 mg/kg, read-out: Conc in rat plasma
  concentration at 2 h: 8.94 µM and 16.18 µM
[3]; 150 mg/kg, F, 2 h after last dose Day 7, individual animals, mono-hydrochloride, 150 mg/kg
  Conc in rat plasma: 5990 ng/mL and 2430 ng/mL and 5530 ng/mL
[3]; 150 mg/kg, F, 2 h after last dose Day 7, individual animals, mono-hydrochloride, 150 mg/kg, read-out: Conc in rat plasma
  concentration at 2 h: 22.49 µM and 9.12 µM and 20.76 µM
[3]; 150 mg/kg, M, 2 h after last dose Day 7, individual animals, mono-hydrochloride, 150 mg/kg
  Conc in rat plasma: 4280 ng/mL and 6910 ng/mL and 6560 ng/mL
[3]; 150 mg/kg, M, 2 h after last dose Day 7, individual animals, mono-hydrochloride, 150 mg/kg, read-out: Conc in rat plasma
  concentration at 2 h: 25.95 µM and 24.63 µM
[3]; female, Sprague-Dawley (SD), rat, plasma, iv, 75 mg/kg, 75 mg/kg, F, 2 h after last dose Day 7, individual animals, read-out: Conc in rat plasma
  concentration at 2 h: 2670 ng/mL and 10 µM
[3]; female, Sprague-Dawley (SD), rat, plasma, iv, 75 mg/kg, 75 mg/kg, F, 2 h after last dose Day 7, read-out: Mean Conc in rat plasma
  concentration at 2 h: 3030 ng/mL
[3]; female, Sprague-Dawley (SD), rat, plasma, iv, 150 mg/kg, 150 mg/kg, F, 2 h after last dose Day 7, read-out: Mean Conc in rat plasma
  concentration at 2 h: 4650 ng/mL
[3]; male, Sprague-Dawley (SD), rat, plasma, iv, 75 mg/kg, 75 mg/kg, M, 2 h after last dose Day 7, individual animals, read-out: Conc in rat plasma
  concentration at 2 h: 2350 ng/mL and 8.82 µM
[3]; male, Sprague-Dawley (SD), rat, plasma, iv, 75 mg/kg, 75 mg/kg, M, 2 h after last dose Day 7, read-out: Mean Conc in rat plasma
  concentration at 2 h: 3010 ng/mL
[3]; male, Sprague-Dawley (SD), rat, plasma, iv, 150 mg/kg, 150 mg/kg, M, 2 h after last dose Day 7, individual animals, read-out: Conc in rat plasma
  concentration at 2 h: 4280 ng/mL and 16.1 µM
[3]; male, Sprague-Dawley (SD), rat, plasma, iv, 150 mg/kg, 150 mg/kg, M, 2 h after last dose Day 7, read-out: Mean Conc in rat plasma
  concentration at 2 h: 5920 ng/mL
Stability in hepatocytes; dog hepatocytes, mono-hydrochloride
  stability in hepatocytes: stable; also recorded: metabolic stability
Stability in hepatocytes; human hepatocytes, mono-hydrochloride
  stability in hepatocytes: stable; also recorded: metabolic stability
Stability in hepatocytes; monkey hepatocytes
  stability in hepatocytes: metabolic stability
Stability in hepatocytes; rat hepatocytes, mono-hydrochloride
  stability in hepatocytes: stable; also recorded: metabolic stability
allodynia
  effect on allodynia, methylglyoxal-induced diabetic neuropathy: alleviates allodynia
Stability in plasma
  stability in plasma: stable
Caco-2 cells
  cytotoxicity (LDH release): less than 25%
[4]; rat single dose, urine and feces
  administered compound recovered unchanged: 5-15%
[4]; rats
  form excreted in urine and feces: primarily as a sulfate conjugate
[5]
  hyperalgesia (mechanical thresholds): not hyperalgesic
[6]; in 2-propanol, ethanol, 10% water: isopropyl acetate, 10% water/tetrahydrofuran, and water
  solubility: sparingly soluble
[6]; in methanol and tert-butyl alcohol: water (1:1)
  solubility: freely soluble
[6]; in n-heptane, toluene, acetone, tetrahydrofuran, ethyl acetate, isopropyl acetate, t-butyl methyl ether, t-butyl alcohol
  solubility: less than sparingly soluble
